Publication PMC11134608, “UBR5 forms ligand-dependent complexes on chromatin to regulate nuclear hormone receptor stability” (Molecular cell, 2023)
Read-outs that look alike come from different tables or passages of the source.

Legend:
UBR5-RARA = experiment: In vitro FLAG-UBR5 pull-down of His-tagged RARA; format: binding, human; settings: 50 μM ligand, anti-His western, 25 mM HEPES pH 7.4, 125 mM NaCl, 0.05% TWEEN-20
Experimental: 12 μL of FLAG M2 slurry were equilibrated with binding buffer (25 mM HEPES pH 7.4, 125 mM NaCl, 0.05% TWEEN-20). The resin was pelleted and excess buffer removed. 60 μL of fresh binding buffer was re-added, followed by addition of 15 pmol (2.5 μL ofa6 μM solution) of purified FLAG-UBR5 protein and incubated on a rotating wheel at 4°C for 60–90 minutes. The resin was pelleted, excess buffer removed, and 150 μL fresh binding buffer (supplemented with 50 μM ligand of interest or DMSO) added, followed by 150 pmol protein (binding partner protein of interest) and incubated for another 60 minutes. The resin was pelleted, excess buffer removed and washed with 400 μL of binding buffer (supplemented with ligand of interest or DMSO), and this process was repeated three times. The resin was pelleted, excess buffer removed and 45 μL of binding buffer supplemented with 1 mg/mL 3xFLAG peptide was added to elute proteins over 30 minutes on a rotating wheel at room temperature. The resin was pelleted, and 40 μL of the supernatant was collected and mixed with 12 μL of 5xSDS gel loading buffer. 6 μL of these samples were applied to SDS-PAGE on a 4–20% gradient gel (Biorad). The gel was transferred to a nitrocellulose membrane using the Trans-Blot Turbo Transfer System (Biorad). Following blocking with 5% skim milk solution in TBST, primary antibodies targeting the NR proteins were added in TBST and incubated overnight at 4 °C. The following day, membranes were washed thrice with TBST buffer and incubated for 45 minutes with fluorescent secondary antibody (Invitrogen A11357), followed by three more washes with TBST. Imaging was performed on a Licor Odyssey system, scanned at 800 nm.

[1] = tested on: ER reporter (E3 ligase dependence); experiment: Targeted CRISPR screens, ER reporter K562 cells: E3 ligase used; format: cell-based, human; settings: for E3 ligase used for ER degradation: K562 ER reporter, CRISPR screen; for E3 Ligase (Table S2): Supplemental Table S2
Experimental: To characterize the UPS pathway components involved in SERD-induced ER degradation, we performed CRISPR screens with our ER reporter in the presence multiple SERDs: fulvestrant, GDC-0927, elacestrant, giredestrant, camizestrant, amcenestrant, AZD-9496, brilanestrant, and LSZ-102. […] Taken together, these findings indicate that different classes of SERDs engage distinct ubiquitin ligases and degradation pathways to target ER.
The UPS and tiling CRISPR functional genomics screen was performed following previously described methods.[22] Briefly, the UPS CRISPR library targets 713 E1, E2, E3 ubiquitin ligases, and deubiquitinases and includes controls genes with a total of 2852 guide RNAs, cloned into the pXPR003 backbone. The UBR5 Tiling screen was created by CRISPR-SURF.[29] Viruses were produced in a T-175 format and ten percent by volume of the library virus was added to reporter cell lines in triplicates for transduction. Transduced cells were allowed to recover and expand for nine days, then treated with indicated ligand. Top and bottom 5% of cells by GFP signal were sorted for a total of at least 100,000 cells per replicate. Samples were processed as previously described.[22]
Reporter cell lines were treated with ATRA or 9-cis RA, and then sorted into four populations by eGFP/mCherry fluorescence ratios (Gates A-D), corresponding to the bottom and top 5–10% respectively (Figure S1D).[22],[23] Sorted cells were pelleted, lysed, and processed according to previous studies.[22] Briefly sgRNAs were amplified in two PCRs via Titanium Taq (Takara Bio 639210), Titanium Taq Buffer and 800uM dNTP mix and eight staggered forward primers. The first PCR also contained 200 nM SBS3-Stagger-pXPR003 forward primer and 200 nM SBS12-pXPR003 reverse primer (cycles: 5 minutes at 94°C, 15 × (30 sec at 94°C, 15 sec at 58°C, 30 sec at 72°C), 2 minutes at 72°C). Illumina adapters and barcodes were added in the second PCR (200 nM P5-SBS3 forward primer, 200 nM P7-barcode-SBS12 reverse primer). Samples were pooled and purified by agarose gel-electrophoresis (Qiagen) and NaOAc/isopropanol precipitation. Amplified guides were quantified by next-generation sequencing (Genomics Platform, Broad Institute), and analyzed for enrichment in Gate A over Gate D, representing degradation rescue.

ER reporter = ER reporter degradation; format: cell-based, human; settings: 1 μM (legend, SERDs)
Experimental: Reporter cell lines were seeded in triplicate at a density of 1 million cells/ml in 100 μl per well in a 96 well plate and measured once. Ligand was added by Digital Dispenser (Tecan), and incubated at 37°C for the appropriate time before reading by flow cytometry. Cells were analyzed for GFP vs mCherry expression. GFP expression was normalized to mCherry signal and ligand treatments were compared to DMSO controls.

ER [2] = experiment: ER degradation after RNF111 or UBR5 knockdown (reporter K562; T47D western); format: cell-based, human; settings: K562 ER-GFP, shUBR5 / sgRNF111, Figure S8C, D
Experimental: (§1) Cells were analyzed for GFP vs mCherry expression.
Protein concentration was quantified via Pierce BCA Protein Assay Kit (ThermoFisher, 23225), and equal amounts of lysates were run on either SDS-PAGE 3–8% Tris-Acetate or 4–12% Bis-Tris Protein Gels (NuPAGE, ThermoFisher), then transferred to a PVDF membrane (Biorad, Wet Transfer System). Membranes were blocked for 30 minutes to 1 hour at room temperature in Odyssey Blocking Buffer/PBS (LI-COR Biosciences), and incubated with primary antibodies at 4 °C overnight. Stained membranes were washed three times in Tris-buffered saline with Tween 20 (TBS-T) and incubated for 1 hour at room temperature with secondary IRDye-conjugated antibodies (LI-COR Biosciences). Membranes were washed three times in TBS-T before imaging (Odyssey Imaging System, LI-COR Biosciences).

UBR5-RARA/RXRA = experiment: In vitro FLAG-UBR5 pull-down of His-tagged RARA/RXRA heterodimer; format: binding, human; settings: 50 μM ligand, pull-down, anti-His western; 25 mM HEPES pH 7.4, 125 mM NaCl, 0.05% TWEEN-20
Experimental: The resin was pelleted and excess buffer removed. 60 μL of fresh binding buffer was re-added, followed by addition of 15 pmol (2.5 μL ofa6 μM solution) of purified FLAG-UBR5 protein and incubated on a rotating wheel at 4°C for 60–90 minutes. The resin was pelleted, excess buffer removed, and 150 μL fresh binding buffer (supplemented with 50 μM ligand of interest or DMSO) added, followed by 150 pmol protein (binding partner protein of interest) and incubated for another 60 minutes. The resin was pelleted, excess buffer removed and washed with 400 μL of binding buffer (supplemented with ligand of interest or DMSO), and this process was repeated three times. The resin was pelleted, excess buffer removed and 45 μL of binding buffer supplemented with 1 mg/mL 3xFLAG peptide was added to elute proteins over 30 minutes on a rotating wheel at room temperature. The resin was pelleted, and 40 μL of the supernatant was collected and mixed with 12 μL of 5xSDS gel loading buffer. 6 μL of these samples were applied to SDS-PAGE on a 4–20% gradient gel (Biorad). The gel was transferred to a nitrocellulose membrane using the Trans-Blot Turbo Transfer System (Biorad). Following blocking with 5% skim milk solution in TBST, primary antibodies targeting the NR proteins were added in TBST and incubated overnight at 4 °C. […]

[3] = tested on: progesterone receptor (PGR); experiment: PGR reporter degradation in U937; format: cell-based, human; settings: for PGR degradation, significance: R5020 vs DMSO, n = 3
Experimental: Additional NRs that have well-characterized ligand-induced degradation include vitamin D receptor (VDR),[46] progesterone receptor (PGR),[47] and thyroid receptor beta (THRB).[7]
as §1

[4] = tested on: HR+ HER2- advanced breast cancer; settings: cited from earlier work; for clinical trial outcome, phase II: second-line treatment
Text: page 11: Supplemental Table S2: Clinical Development of Selective Estrogen Receptor Degraders (SERDs), related to Figure 6 Clinical Development Status for HR+ HER2- Advanced Compound Side Chain E3 Ligase Breast Cancer Treatment Fulvestrant Long Alkyl RNF111 FDA approved for first-line and second-line treatments1,2 FDA approved for second-line, ESR1-mutated disease Elacestrant (RAD1901) Basic Amino RNF111 treatment3,4; Ongoing phase III trial for first-line treatment (NCT05512364) Ongoing Phase III trial for first-line treatment Camizestrant (AZD9833) Basic Amino RNF111 (NCT04711252, NCT0496493 ...

ER [5] = settings: ref [17], [53]; cited from earlier work
Text: SERDs are a class of molecules targeting the ER for the treatment of breast cancer. […] Given that UBR5 is similarly recruited to the NR hydrophobic cleft, we hypothesized that fulvestrant and other SERDs may employ a different mechanism for ER degradation. […] One of the best understood SERDs, fulvestrant, drastically remodels the hydrophobic cleft[16],[17] in a manner incompatible with UBR5 or NCOA binding. […] Strikingly, this correlates with clinical utility, hallmarked by the wide use of fulvestrant and recent approval of elacestrant,[53] both of which employ RNF111, in contrast to UBR5 SERDs (Table S2), none of which have been approved for clinical use. The heterogeneity of ER transcriptional pro ...

[6] = tested on: thyroid receptor beta (THRB); experiment: THRB reporter degradation in U937; format: cell-based, human; settings: for THRB degradation, significance: T3 vs DMSO, n = 3
Experimental: as §1

Compound | E3 ligase used for ER degradation [1] | E3 Ligase (Table S2) [1] | ER reporter degradation (ER reporter) | regulated class of ER degradation (RNF111 or UBR5) (ER [2]) | also measured
CC1=C(/C=C/C(C)=C\C=C\C(C)=C\C(=O)O)C(C)(C)CCC1 [9-cis RA, 9-cis-retinoic acid] | – | – | – | – | binding of RARA to UBR5 (UBR5-RARA): robustly induced binding of RARA to UBR5
O=C1CC[C@H](N2Cc3cc(N4CCN(CC5CCN(c6ccc([C@@H]7c8ccc(O)cc8CC[C@@H]7c7ccccc7)cc6)CC5)CC4)ccc3C2=O)C(=O)N1 [ARV-471] | Cereblon (CRBN) | CRBN | induced ER reporter degradation | – | –
C[C@@H]1Cc2c([nH]c3ccccc23)[C@@H](c2c(F)cc(/C=C/C(=O)O)cc2F)N1CC(C)(C)F [AZD-9496] | required UBR5 for degradation | UBR5 | induced ER reporter degradation | UBR5 Regulated | –
CC1(C)CC=C(c2cnc3ccccc3c2)c2cc(C(=O)Nc3ccc(C(=O)O)cc3)ccc21 [BMS614] | – | – | – | – | binding of RARA/RXRA to UBR5 (UBR5-RARA/RXRA): similarly hindered; binding of RARA to UBR5 (UBR5-RARA): prevented complex formation
CCN(CCCCCOCC(=O)N[C@H](C(=O)N1C[C@H](O)C[C@H]1C(=O)N[C@@H](C)c1ccc(-c2scnc2C)cc1)C(C)(C)C)CCOc1ccc(C(=O)c2c(-c3ccc(O)cc3)sc3cc(O)ccc23)cc1 [ERD-308] | von Hippel-Lindau (VHL) | VHL | induced ER reporter degradation | – | –
CC1=C(c2cccc(O)c2)[C@H](c2ccc(OCCN3CC(CF)C3)cc2)Oc2ccc(O)cc21 [GDC-0927] | employed a different E3 ligase, RNF111 | RNF111 | induced ER reporter degradation | – | –
CC(F)(F)c1cc(F)ccc1-c1sc2cc(O)ccc2c1Oc1ccc(/C=C/C(=O)O)cc1 [LSZ-102] | required UBR5 for degradation | UBR5 | induced ER reporter degradation | UBR5 Regulated | –
CCC(=O)[C@@]1(C)CC[C@H]2[C@@H]3CCC4=CC(=O)CCC4=C3CC[C@@]21C [R5020] | – | – | – | – | PGR degradation, significance ([3]; LUC1 shRNA): *** (***p<0.0005); PGR degradation, significance ([3]; LUC2 shRNA): * (*p<0.05); PGR reporter degradation ([3]; U937, R5020): confirmed degradation; effect of UBR5 shRNAs on PGR degradation ([3]; U937, R5020): rescued degradation
O=C(O)c1ccc2c(c1)CCCC(c1ccc(Cl)cc1Cl)=C2c1ccc(O[C@H]2CCN(CCCF)C2)cc1 [amcenestrant] | employed a different E3 ligase, RNF111 | RNF111 | induced ER reporter degradation | RNF111 Regulated | clinical trial outcome, phase III ([4]; amcenestrant, first-line treatment, NCT04478266, ref 7 (supplement)): Failed primary endpoint phase III trial for first-line; clinical trial outcome, phase II ([4]; amcenestrant, NCT04059484, ref 8 (supplement)): Failed primary endpoint in
C[C@@H]1Cc2c(ccc3[nH]ncc23)[C@@H](c2ccc(NC3CN(CCCF)C3)cn2)N1CC(F)(F)F [camizestrant] | employed a different E3 ligase, RNF111 | RNF111 | induced ER reporter degradation | RNF111 Regulated | clinical trial outcome, phase II ([4]; camizestrant, NCT04214288, ref 5 (supplement)): Successful phase II trial
CCNCCc1ccc(CN(CC)c2cc(OC)ccc2[C@@H]2CCc3cc(O)ccc3C2)cc1 [elacestrant] | employed a different E3 ligase, RNF111 | RNF111 | induced ER reporter degradation | RNF111 Regulated | ER degradation (literature) (ER [5]): lead to ER degradation
C[C@@H]1Cc2c([nH]c3ccccc23)[C@@H](c2c(F)cc(NC3CN(CCCF)C3)cc2F)N1CC(F)(F)CO [giredestrant] | employed a different E3 ligase, RNF111 | RNF111 | induced ER reporter degradation | RNF111 Regulated | clinical trial outcome, phase II ([4]; giredestrant, NCT04576455, ref 6 (supplement)): Failed primary endpoint in phase II trial
N[C@@H](Cc1cc(I)c(Oc2cc(I)c(O)c(I)c2)c(I)c1)C(=O)O [levothyroxine [T3], levothyroxine] | – | – | – | – | THRB degradation, significance ([6]; LUC1 shRNA): ** (**p<0.005); THRB degradation, significance ([6]; LUC2 shRNA): ** (**p<0.005); THRB reporter degradation ([6]; U937, T3): confirmed degradation; UBR5 dependence of THRB degradation ([6]; U937, T3): not dependent on UBR5; THRB degradation, significance ([6]; UBR5-1 shRNA): ** (**p<0.005); THRB degradation, significance ([6]; UBR5-2 shRNA): ** (**p<0.005)
